Experimental data taken from patent US20100069326A1, “Combination Therapies to Treat Cardio- and Cerebro-Vascular Disorders” (priority 2008, published 2010).
Read-outs that look alike come from different tables or passages of the source.

What was measured:
[1] = tested on: rat middle cerebral artery occlusion (MCAO) model of stroke; settings: cited from earlier work; for reducing infarct size (in words): dose of 30 mg/kg, triflusal versus aspirin
[2] = tested on: cAMP phosphodiesterase; settings: compared with aspirin; cited from earlier work
[3] = tested on: Male Wistar rats with unilateral MCAO (cerebral ischemia); assay: Rat stroke model (permanent MCA occlusion), infarct volume assessment; type: in vivo; settings: triflusal 30 mg/kg alone, 3 days after unilateral MCAO; for Infarct volume: three days, mean±SEM
Experimental: Male Wistar rats (265-360 g) were randomly divided into four treatment groups (n=5-9 for each group). Prior to and following surgery rats were housed in single cages (12/12 h light/dark cycle) and were fed at libitum. Prior to surgery, all rats were anaesthetized with a single dose of sodium pentobarbital (60 mg/kg ip) and placed in a David Kopf stereotaxic apparatus. Rectal temperatures were monitored and maintained constant at 37° C. by a heating pad while the rats were under anesthesia. The right MCA was exposed. […] Removal of a portion of the bone and exposure and ligation of the MCA was done with the aid of an operating stereomicroscope. Immediately following surgery, rats received one of the following treatments: 30 mg/kg triflusal or 30 mg/kg triflusal and 200 mg/kg dipyridamole or 10 mg/kg triflusal and 200 mg/kg dipyridamole or vehicle only for next three days. Three days after surgery, all animals were euthanized via pentobarbital overdose and perfused transaortically first with saline which was immediately followed by a low perfusion for about 1 h with 2% solution of triphenyl-tetrazolium chloride (TTC) that is followed by 4% formaldehyde (pH 7.4). The brains were removed and coronal sections (1 mm) were cut for infarct measurement. Investigator was blind to the sample treatment. Serial brain sections were examined and the areas of infarcted tissue were measured (SigmaScan […].0, SPSS Inc., Chicago Ill., USA). In addition, the hemispheric areas of each tissue section were measured to account for any brain swelling that might have occurred following cerebral ischemia. The volume of the infarct was calculated in mm^3 by integrating the infarct sizes for each of the tissue sections that contained infarcted tissue. The 1 mm sections were photographed using a Nikon digital camera. Results are expressed as mean±SEM of each measure. The volumes of the infarcts for each of the groups were compared by Student's unpaired two-tailed t tests. Significance was set at p≦0.05. Correlations between parameters were tested by linear regression analysis

CC(=O)Oc1ccccc1C(=O)O [aspirin]
reducing infarct size (in words) [1]: equally effective

CC(=O)Oc1cc(C(F)(F)F)ccc1C(=O)O [Triflusal, 2-acetoxy-4-trifluoromethylbenzoic acid]
reducing infarct size (in words) [1]: equally effective
infarct reduction in the MCAO model ([1]; triflusal 10 mg/kg/day, not significant neuroprotection): 12.56%
infarct reduction in the MCAO model ([1]; triflusal 30 mg/kg/day, significant neuroprotection): 43.95%
potency as inhibitor of cAMP phosphodiesterase relative to aspirin [2]: five times more potent
Infarct volume [3]: 73.59 ± 7.0 mm^3
Infarct volume ([3]; listed as triflusal): 73.59±7.0 mm^3
Infarct reduction ([3]; vs vehicle): 30.72 ± 6.6%
